Assay results published in patent publication US10669301B2, “Phosphoramidite building blocks for sugar-conjugated oligonucleotides” (AM CHEMICALS LLC, priority 2013, dated 2020).

Assay: Hydrolysis of phosphoramidite building blocks in 95% aqueous MeCN followed by reverse-phase HPLC
Format: physicochemical
Conditions: 95% aqueous MeCN at 25° C.
Procedure: The hydrolysis of phosphoramidite building blocks 12 and 16 in 95% aqueous MeCN at 25° C. was followed by reverse-phase HPLC.

Substance	half-life of hydrolysis
5′-O-(4,4′-Dimethoxytrityl)-3′-O—[(N,N-diisopropylamino)[2-[[2-[(2,3,4,6-tetra-O-acetyl-β-D-glucopyranosyl)oxy]ethyl]oxy]ethoxy]phosphinyl]thymidine [Compound 16]	33 h
5′-O-(4,4′-Dimethoxytrityl)-3′-O—[(N,N-diisopropylamino)[3-[(2,3,4,6-tetra-O-acetyl-β-D-glucopyranosyl)oxy]propyl]phosphino]thymidine [Compound 12]	48 h
